Where two headings read alike, the source gives them in different places.
Tests used:
[1] = tested on: wheat leaf blight-causing microorganisms; assay: Anti-bacterial effect on wheat leaf blight-causing microorganisms (PDA plate, mycelial growth inhibition); type: cell-based, Septoria tritici; settings: 1.25 mg/L in PDA plate medium, 25° C., 14 days
Protocol: In Test Examples, an anti-bacterial effect of a compound in accordance with the present invention on the wheat leaf blight-causing microorganisms was tested, and was compared with the anti-bacterial effect of a comparative compound (1).
A dimethyl sulfoxide solution (0.6 ml) containing a compound in accordance with the present invention was added to a PDA medium (potato dextrose agar medium) (60 ml) having about 60° C., and the resultant mixture was mixed thoroughly in a 100-ml conical flask. The mixture was poured into a dish, and was solidified. […]
On the other hand, a subject microorganism previously cultured on a plate medium was cut out with use of a cork borer whose diameter was 4 mm, and the wheat leaf blight-causing microorganism on the plate medium thus cut out was inoculated to the chemical-containing plate medium described above. After such inoculation, the chemical-containing plate medium was incubated at 25° C. for 14 days, and then diameters of its flora were measured. A % mycelial growth inhibition was calculated with use of the formula. R=100(dc−dt)/dc (where R=% mycelial extension inhibition, dc=flora diameter in untreated plate, dt=flora diameter in treated plate)
The results obtained as described above were evaluated on a five-point scale according to the following criteria.
• 5: % Mycerial growth inhibition of 80% or higher • 4: % Mycerial growth inhibition of less than 80 to 60% or higher • 3: % Mycerial growth inhibition of less than 60 to 40% or higher • 2: % Mycerial growth inhibition of less than 40 to 20% or higher • 1: % Mycerial growth inhibition of less than 20%

[2] = tested on: wheat-brown-rust-causing microorganisms; assay: Controlling effect on wheat brown rust (spray, pot test); type: in vivo, Puccinia recondita; settings: 1 mg/L sprayed at 1,000 L/ha, wheat NORIN No. 61, 9 to 14 days after inoculation
Protocol: Onto a wheat plant (cultivar: NORIN No. 61) grown to the two-leaf stage with use of a square plastic pot (6 cm×6 cm), a wettable formulation such as Formulation Example 1 which was diluted and suspended in water at a concentration of 1 mg/L was sprayed at a rate of 1,000 L/ha. The sprayed leaves were air-dried, and inoculated with spore suspension of wheat-brown-rust-causing microorganisms (adjusted at 200 spores/vision, […] was added at 60 ppm) by spraying, and kept at 25° C. and a high humidity for 48 hours. Thereafter, the plant was kept in a greenhouse. Nine to fourteen days after inoculation, the wheat brown rust lesion degree was evaluated. The protective value was calculated by the following equation. Protective value (%)=(1-mean lesion degree in sprayed plot/mean lesion degree in unsprayed plot)×100 [table] [table]

[3] = tested on: Wheat Septoria nodorum blotch microorganism (Phaeosphaeria nodorum); assay: Anti-bacterial effect on various microorganisms (plate medium), P.n; type: cell-based
[4] = tested on: Wheat eye spot (Pseudocercoporella herpotrichoides); assay: Anti-bacterial effect on various microorganisms (plate medium), P.h; type: cell-based
[5] = tested on: Wheat fusarium blight (Fusarium graminearum); type: cell-based
[6] = tested on: Barley loose smut (Ustilago nuda); assay: Anti-bacterial effect on various microorganisms (plate medium), U.n; type: cell-based
[7] = tested on: Rice blast (Pyricularia oryzae); type: cell-based
[8] = tested on: Rice bakanae disease (Giberella fujikuroi); assay: Anti-bacterial effect on various microorganisms (plate medium), G.f; type: cell-based
[9] = tested on: Alternaria blotch (Alternaria alternata); assay: Anti-bacterial effect on various microorganisms (plate medium), A.m; type: cell-based
[10] = tested on: Sclerotinia rot (Sclerotinia sclerotiorum); assay: Anti-bacterial effect on various microorganisms (plate medium), S.s; type: cell-based
[11] = tested on: Gray mold (Botritis cinerea); assay: Anti-bacterial effect on various microorganisms (plate medium), B.c; type: cell-based
[12] = tested on: Cucumber fusarium wilt (Fusarium oxysporum); assay: Anti-bacterial effect on various microorganisms (plate medium), F.c; type: cell-based
[13] = tested on: Barley leaf blotch (Rhynchosporium secalis); assay: Anti-bacterial effect on various microorganisms (plate medium), R. sec; type: cell-based
[14] = tested on: Wheat pink snow mold (Microdochium nivale); assay: Anti-bacterial effect on various microorganisms (plate medium), M.n; type: cell-based
[15] = tested on: Rice bacterial seeding blight (Rhizopus oryzae); assay: Anti-bacterial effect on various microorganisms (plate medium), R.o; type: cell-based

COC[C@]1(CCl)CC[C@@H](Cc2ccc(F)cc2)[C@]1(O)Cn1cncn1 (racemic) [Compound I-170, (1RS,2RS,5SR)-5-(4-fluorobenzyl)-2-chloromethyl-2-methoxymethyl-1H-[1,2,4]triazole-1-ylmethylcyclopentanol]
Growth inhibition grade [1]: 5 (% Mycerial growth inhibition of 80% or higher) | Protective value [2]: 4 (61 to 80) | Growth inhibition grade P.n ([3]; 1.25 mg/L): 5 (% Mycerial growth inhibition of 80% or higher) | Growth inhibition grade P.n ([3]; 5 mg/L): 5 (% Mycerial growth inhibition of 80% or higher) | Growth inhibition grade P.h ([4]; 1.25 mg/L): 5 (% Mycerial growth inhibition of 80% or higher) | Growth inhibition grade P.h ([4]; 5 mg/L): 5 (% Mycerial growth inhibition of 80% or higher) | Growth inhibition grade F.g ([5]; 1.25 mg/L): 5 (% Mycerial growth inhibition of 80% or higher) | Growth inhibition grade F.g ([5]; 5 mg/L): 5 (% Mycerial growth inhibition of 80% or higher) | Growth inhibition grade U.n ([6]; 1.25 mg/L): 5 (% Mycerial growth inhibition of 80% or higher) | Growth inhibition grade U.n ([6]; 5 mg/L): 5 (% Mycerial growth inhibition of 80% or higher) | Growth inhibition grade P.o ([7]; 1.25 mg/L): 5 (% Mycerial growth inhibition of 80% or higher) | Growth inhibition grade P.o ([7]; 5 mg/L): 5 (% Mycerial growth inhibition of 80% or higher) | Growth inhibition grade G.f ([8]; 1.25 mg/L): 5 (% Mycerial growth inhibition of 80% or higher) | Growth inhibition grade G.f ([8]; 5 mg/L): 5 (% Mycerial growth inhibition of 80% or higher) | Growth inhibition grade A.m ([9]; 1.25 mg/L): 4 (% Mycerial growth inhibition of less than 80 to 60% or higher) | Growth inhibition grade A.m ([9]; 5 mg/L): 5 (% Mycerial growth inhibition of 80% or higher) | Growth inhibition grade S.s ([10]; 1.25 mg/L): 5 (% Mycerial growth inhibition of 80% or higher) | Growth inhibition grade S.s ([10]; 5 mg/L): 5 (% Mycerial growth inhibition of 80% or higher) | Growth inhibition grade B.c ([11]; 1.25 mg/L): 5 (% Mycerial growth inhibition of 80% or higher) | Growth inhibition grade B.c ([11]; 5 mg/L): 5 (% Mycerial growth inhibition of 80% or higher) | Growth inhibition grade F.c ([12]; 1.25 mg/L): 5 (% Mycerial growth inhibition of 80% or higher) | Growth inhibition grade F.c ([12]; 5 mg/L): 5 (% Mycerial growth inhibition of 80% or higher) | Growth inhibition grade R. sec ([13]; 1.25 mg/L): 5 (% Mycerial growth inhibition of 80% or higher) | Growth inhibition grade R. sec ([13]; 5 mg/L): 5 (% Mycerial growth inhibition of 80% or higher) | Growth inhibition grade M.n ([14]; 1.25 mg/L): 5 (% Mycerial growth inhibition of 80% or higher) | Growth inhibition grade M.n ([14]; 5 mg/L): 5 (% Mycerial growth inhibition of 80% or higher) | Growth inhibition grade R.o ([15]; 1.25 mg/L): 5 (% Mycerial growth inhibition of 80% or higher) | Growth inhibition grade R.o ([15]; 5 mg/L): 5 (% Mycerial growth inhibition of 80% or higher)

Source: patent US9241488B2, “Azole derivative, method for producing azole derivative, and intermediate compound” (KUREHA CORPORATION, priority 2011, dated 2016)
